Numbered stars: 1 amine (or outer) side, 2 acyl side, 3 side chain; on linkers, the order of the positions; unused ones are H or OH. Bridge positions count the residues as written; N and C are the ends. Square brackets hold non-standard residues; d marks the D form. Peptide text beside a SMILES is read from it. Arg(Me2a) = CN(C)C(=N)NCCC[C@H](N)C(=O)O; Arg(Me2s) = CN=C(NC)NCCC[C@H](N)C(=O)O; TBMB = c1c(C[*:1])cc(C[*:3])cc1C[*:2]
T1: Human factor XIIa (hfXIIa) (Homo sapiens, UniProt P00748)
T1 sequence (P00748 373-615 limits assumed): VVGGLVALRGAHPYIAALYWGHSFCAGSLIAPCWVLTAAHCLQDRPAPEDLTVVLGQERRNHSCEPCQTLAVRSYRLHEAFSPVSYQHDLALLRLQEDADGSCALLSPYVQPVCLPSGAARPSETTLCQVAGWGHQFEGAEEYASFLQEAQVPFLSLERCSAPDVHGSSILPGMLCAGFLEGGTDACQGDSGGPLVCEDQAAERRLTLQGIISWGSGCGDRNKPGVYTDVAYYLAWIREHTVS

B1: Ac-(06-34-18) NDMA5 (peptide)
peptide: Ac-CSWPA[Arg(Me2a)]CLHQDLC-NH2
modifications: linker 1-7-13 via TBMB
SMILES: CC(=O)N[C@H]1CSCc2cc3cc(c2)CSC[C@H](NC(=O)[C@H](CCCNC(=N)N(C)C)NC(=O)[C@H](C)NC(=O)[C@@H]2CCCN2C(=O)[C@H](Cc2c[nH]c4ccccc24)NC(=O)[C@H](CO)NC1=O)C(=O)N[C@@H](CC(C)C)C(=O)N[C@@H](Cc1c[nH]cn1)C(=O)N[C@@H](CCC(N)=O)C(=O)N[C@@H](CC(=O)O)C(=O)N[C@@H](CC(C)C)C(=O)N[C@H](C(N)=O)CSC3
B2: Ac-(06-34-18) D-Ala4 (peptide)
peptide: Ac-CSWP[dA]RCLHQDLC-NH2
modifications: linker 1-7-13 via TBMB
SMILES: CC(=O)N[C@H]1CSCc2cc3cc(c2)CSC[C@H](NC(=O)[C@H](CCCNC(=N)N)NC(=O)[C@@H](C)NC(=O)[C@@H]2CCCN2C(=O)[C@H](Cc2c[nH]c4ccccc24)NC(=O)[C@H](CO)NC1=O)C(=O)N[C@@H](CC(C)C)C(=O)N[C@@H](Cc1c[nH]cn1)C(=O)N[C@@H](CCC(N)=O)C(=O)N[C@@H](CC(=O)O)C(=O)N[C@@H](CC(C)C)C(=O)N[C@H](C(N)=O)CSC3
B3: Ac-(06-34-18) D-Trp2 (peptide)
peptide: Ac-CS[dW]PARCLHQDLC-NH2
modifications: linker 1-7-13 via TBMB
SMILES: CC(=O)N[C@H]1CSCc2cc3cc(c2)CSC[C@H](NC(=O)[C@H](CCCNC(=N)N)NC(=O)[C@H](C)NC(=O)[C@@H]2CCCN2C(=O)[C@@H](Cc2c[nH]c4ccccc24)NC(=O)[C@H](CO)NC1=O)C(=O)N[C@@H](CC(C)C)C(=O)N[C@@H](Cc1c[nH]cn1)C(=O)N[C@@H](CCC(N)=O)C(=O)N[C@@H](CC(=O)O)C(=O)N[C@@H](CC(C)C)C(=O)N[C@H](C(N)=O)CSC3
B4: Ac-(06-34-18) SDMA5 (peptide)
peptide: Ac-CSWPA[Arg(Me2s)]CLHQDLC-NH2
modifications: linker 1-7-13 via TBMB
SMILES: CN=C(NC)NCCC[C@@H]1NC(=O)[C@H](C)NC(=O)[C@@H]2CCCN2C(=O)[C@H](Cc2c[nH]c3ccccc23)NC(=O)[C@H](CO)NC(=O)[C@@H](NC(C)=O)CSCc2cc3cc(c2)CSC[C@H](NC1=O)C(=O)N[C@@H](CC(C)C)C(=O)N[C@@H](Cc1c[nH]cn1)C(=O)N[C@@H](CCC(N)=O)C(=O)N[C@@H](CC(=O)O)C(=O)N[C@@H](CC(C)C)C(=O)N[C@H](C(N)=O)CSC3

Tests used:
Human thrombin = Human thrombin (Homo sapiens, UniProt P00734); assay: Inhibition of paralogous protease thrombin; format: biochemical
Procedure: (§1) The target specificity of the isolated bicyclic peptide inhibitors was assessed by determining the inhibition of trypsin-like human serine proteases of the class S1A which comprises 79 members (Yousef, et al, Biochem Biophys Res Commun 2003, 305 (1), 28-36). The panel of proteases included hfXIa which shares the highest sequence identity with hPK (69%) as well as the structurally less related but vital human serine proteases thrombin (36%), plasmin (34% sequence identity with hPK) and factor XIIa (35%).

[1] = target: human plasma kallikrein (hPK) (Homo sapiens, UniProt P03952); assay: Enzyme inhibition assay, human plasma kallikrein
Sequence of human plasma kallikrein (hPK) (P03952 20-638): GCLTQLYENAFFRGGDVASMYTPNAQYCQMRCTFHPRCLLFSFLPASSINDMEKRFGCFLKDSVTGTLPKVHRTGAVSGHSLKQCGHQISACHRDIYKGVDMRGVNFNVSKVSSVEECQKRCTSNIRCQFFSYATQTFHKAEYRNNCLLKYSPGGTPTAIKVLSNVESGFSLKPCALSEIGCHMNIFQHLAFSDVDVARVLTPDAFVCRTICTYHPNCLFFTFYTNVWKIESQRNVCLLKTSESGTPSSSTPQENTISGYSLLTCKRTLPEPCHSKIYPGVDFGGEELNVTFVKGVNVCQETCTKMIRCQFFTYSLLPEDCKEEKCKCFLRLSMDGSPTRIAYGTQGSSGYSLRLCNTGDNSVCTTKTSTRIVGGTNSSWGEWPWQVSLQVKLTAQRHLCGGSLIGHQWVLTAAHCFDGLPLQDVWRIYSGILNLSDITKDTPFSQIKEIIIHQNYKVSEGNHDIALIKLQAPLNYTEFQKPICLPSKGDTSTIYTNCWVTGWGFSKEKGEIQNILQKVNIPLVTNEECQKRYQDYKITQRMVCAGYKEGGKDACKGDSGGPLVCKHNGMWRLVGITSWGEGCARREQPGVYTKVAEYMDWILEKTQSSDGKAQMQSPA

[2] = target: T1, Human factor XIIa (hfXIIa); assay: Inhibition of paralogous protease factor XIIa; format: biochemical
Procedure: as §1

[3] = target: T2, Human plasma kallikrein (hPK) (human, UniProt P03952 20-638, limits assumed); assay: enzyme inhibition assay (fluorogenic substrate)
T2 construct: also called human PK; human kallikrein
T2 sequence (P03952 20-638 limits assumed): as the sequence (P03952 20-638) above

[4] = target: T2, Human plasma kallikrein (hPK); assay: enzyme inhibition assay (fluorogenic substrate); remark: listed apart in the source

Row | Molecule | IC50 (Human thrombin) [nM] | Ki [1] [nM] | IC50 [2] [nM] | Ki [3] [nM] | fold reduction of affinity against Ac-06-34-18 wildtype [4] [fold] | fold loss in potency against Ac-06-34-18 wildtype [4] [fold]
1 | CC(C)[C@@H]1NC(=O)[C@H](CCCNC(=N)N)NC(=O)[C@@H]2CSCc3cc(cc(c3)CSC[C@@H](C(=O)N[C@@H](C)C(N)=O)NC(=O)[C@H](C)NC1=O)CSC[C@H](NC(=O)[C@H](C)N)C(=O)N[C@@H](Cc1ccccc1)C(=O)N[C@@H](CCCCN)C(=O)N[C@@H](Cc1c[nH]cn1)C(=O)N2 [Peptide 3B8] (H-ACFKHCRVACA-NH2; linker 2-6-10 via TBMB) | > 10000 | 0.95 | – | – | – | –
2 | CC(C)C[C@@H]1NC(=O)[C@@H]2CSCc3cc(cc(c3)CSC[C@@H](C(=O)N[C@@H](C)C(N)=O)NC(=O)[C@@H]3CCCN3C(=O)[C@H](CCCNC(=N)N)NC(=O)[C@H](CCCNC(=N)N)NC(=O)[C@H](Cc3ccccc3)NC1=O)CSC[C@H](NC(=O)[C@H](C)N)C(=O)N[C@@H](C)C(=O)N[C@@H](CC(=O)O)C(=O)N1CCC[C@H]1C(=O)N[C@@H](Cc1c[nH]c3ccccc13)C(=O)N[C@@H](C)C(=O)N2 [06-63 T] (H-ACADPWACLFRRPCA-NH2; linker 2-8-14 via TBMB) | > 10000 | 1280 | > 10000 | – | – | –
3 | CC(C)[C@@H]1NC(=O)[C@H](CCCNC(=N)N)NC(=O)[C@@H]2CSCc3cc(cc(c3)CSC[C@@H](C(=O)N[C@@H](C)C(N)=O)NC(=O)[C@H](CC(N)=O)NC1=O)CSC[C@H](NC(=O)[C@H](C)N)C(=O)N[C@@H](Cc1ccccc1)C(=O)N[C@@H](CCCCN)C(=O)N[C@@H](CCC(N)=O)C(=O)N2 [Peptide 06-94] (H-ACFKQCRVNCA-NH2; linker 2-6-10 via TBMB) | > 10000 | 0.7 | – | – | – | –
4 | C[C@H](N)C(=O)N[C@H]1CSCc2cc3cc(c2)CSC[C@H](NC(=O)[C@H](CCCNC(=N)N)NC(=O)[C@H](C)NC(=O)[C@@H]2CCCN2C(=O)[C@H](Cc2c[nH]c4ccccc24)NC(=O)[C@H]([C@@H](C)O)NC1=O)C(=O)N[C@@H]([C@@H](C)O)C(=O)N[C@@H](Cc1c[nH]cn1)C(=O)N[C@@H](CCC(N)=O)C(=O)N[C@@H](CC(N)=O)C(=O)N[C@@H](Cc1c[nH]c2ccccc12)C(=O)N[C@H](C(=O)N[C@@H](C)C(N)=O)CSC3 [Peptide 06-09] (H-ACTWPARCTHQNWCA-NH2; linker 2-8-14 via TBMB) | > 10000 | 1.2 | > 10000 | – | – | –
5 | CSCC[C@@H]1NC(=O)[C@H](CCC(=O)O)NC(=O)[C@H](CCC(N)=O)NC(=O)[C@H](Cc2c[nH]cn2)NC(=O)[C@H]([C@@H](C)O)NC(=O)[C@@H]2CSCc3cc(cc(c3)CSC[C@@H](C(=O)N[C@@H](C)C(N)=O)NC1=O)CSC[C@H](NC(=O)[C@H](C)N)C(=O)NCC(=O)N[C@@H](C(C)C)C(=O)N1CCC[C@H]1C(=O)N[C@@H](Cc1ccc(O)cc1)C(=O)N[C@@H](CCCNC(=N)N)C(=O)N2 [06-64 T] (H-ACGVPYRCTHQEMCA-NH2; linker 2-8-14 via TBMB) | > 10000 | 6.9 | > 10000 | – | – | –
6 | CSCC[C@@H]1NC(=O)[C@H]([C@@H](C)O)NC(=O)[C@@H]2CSCc3cc(cc(c3)CSC[C@@H](C(=O)N[C@@H](C)C(N)=O)NC(=O)[C@H](Cc3c[nH]c4ccccc34)NC(=O)[C@H](CC(N)=O)NC(=O)[C@H](CCC(N)=O)NC1=O)CSC[C@H](NC(=O)[C@H](C)N)C(=O)N[C@@H]([C@@H](C)O)C(=O)N[C@@H](Cc1c[nH]c3ccccc13)C(=O)N1CCC[C@H]1C(=O)N[C@@H](C)C(=O)N[C@@H](CCCNC(=N)N)C(=O)N2 [06-A2*] (H-ACTWPARCTMQNWCA-NH2; linker 2-8-14 via TBMB) | – | 181 | > 10000 | – | – | –
7 | CC(C)C[C@@H]1NC(=O)[C@H](CC(=O)O)NC(=O)[C@H](CCC(N)=O)NC(=O)[C@H](Cc2c[nH]cn2)NC(=O)[C@H](CC(N)=O)NC(=O)[C@@H]2CSCc3cc(cc(c3)CSC[C@@H](C(=O)N[C@@H](C)C(N)=O)NC1=O)CSC[C@H](NC(=O)[C@H](C)N)C(=O)N[C@@H](CO)C(=O)N[C@@H](Cc1c[nH]c3ccccc13)C(=O)N1CCC[C@H]1C(=O)N[C@@H](C)C(=O)N[C@@H](CCCNC(=N)N)C(=O)N2 [Peptide 06-57] (H-ACSWPARCNHQDLCA-NH2; linker 2-8-14 via TBMB) | > 10000 | 0.4 | > 10000 | – | – | –
8 | CC(C)C[C@@H]1NC(=O)[C@@H]2CSCc3cc(cc(c3)CSC[C@@H](C(=O)N[C@@H](C)C(N)=O)NC(=O)[C@H](Cc3ccc(O)cc3)NC(=O)[C@H](CC(=O)O)NC(=O)[C@H](CCC(N)=O)NC(=O)[C@H](Cc3c[nH]cn3)NC1=O)CSC[C@H](NC(=O)[C@H](C)N)C(=O)N[C@@H](CO)C(=O)N[C@@H](Cc1c[nH]c3ccccc13)C(=O)N1CCC[C@H]1C(=O)N[C@@H](Cc1ccc(O)cc1)C(=O)N[C@@H](CCCNC(=N)N)C(=O)N2 [Peptide 06-61] (H-ACSWPYRCLHQDYCA-NH2; linker 2-8-14 via TBMB) | > 10000 | 5.8 | > 10000 | – | – | –
9 | CC(C)C[C@@H]1NC(=O)[C@@H]2CSCc3cc(cc(c3)CSC[C@@H](C(=O)N[C@@H](C)C(N)=O)NC(=O)[C@H](CC(C)C)NC(=O)[C@H](CC(=O)O)NC(=O)[C@H]([C@@H](C)O)NC(=O)[C@H](Cc3c[nH]cn3)NC1=O)CSC[C@H](NC(=O)[C@H](C)N)C(=O)N[C@@H](CC(N)=O)C(=O)N[C@@H](Cc1c[nH]c3ccccc13)C(=O)N1CCC[C@H]1C(=O)N[C@@H](Cc1ccc(O)cc1)C(=O)N[C@@H](CCCNC(=N)N)C(=O)N2 [Peptide 06-157] (H-ACNWPYRCLHTDLCA-NH2; linker 2-8-14 via TBMB) | > 10000 | 3.3 | > 10000 | – | – | –
10 | CC(C)C[C@@H]1NC(=O)[C@H](CO)NC(=O)[C@H]([C@@H](C)O)NC(=O)[C@H]([C@@H](C)O)NC(=O)[C@H](CC(C)C)NC(=O)[C@@H]2CSCc3cc(cc(c3)CSC[C@@H](C(=O)N[C@@H](C)C(N)=O)NC1=O)CSC[C@H](NC(=O)[C@H](C)N)C(=O)N[C@@H](CCCNC(=N)N)C(=O)N[C@@H](Cc1c[nH]c3ccccc13)C(=O)N1CCC[C@H]1C(=O)N[C@@H](C)C(=O)N[C@@H](CCCNC(=N)N)C(=O)N2 [Peptide 06-59] (H-ACRWPARCLTTSLCA-NH2; linker 2-8-14 via TBMB) | > 10000 | 0.5 | > 10000 | – | – | –
11 | CC(C)[C@@H]1NC(=O)[C@H](CCCNC(=N)N)NC(=O)[C@@H]2CSCc3cc(cc(c3)CSC[C@@H](C(=O)N[C@@H](C)C(N)=O)NC(=O)[C@H](CC(N)=O)NC1=O)CSC[C@H](NC(=O)[C@H](C)N)C(=O)N[C@@H](Cc1ccccc1)C(=O)N[C@@H](Cc1ccc(O)cc1)C(=O)N[C@@H](CCCCN)C(=O)N2 [Peptide 06-71] (H-ACFYKCRVNCA-NH2; linker 2-6-10 via TBMB) | – | 15.2 | – | – | – | –
12 | B1 | – | – | – | 510 | – | –
13 | B2 | – | – | – | – | 7000 | –
14 | B3 | – | – | – | – | – | 45000
15 | B4 | – | – | – | 1420 | – | –
